Laboratory results as given in US10479780B2, “Aminopyrazole derivatives” (Chugai Seiyaku Kabushiki Kaisha, priority 2015, dated 2019).

Key:
Assay type in all cases: biochemical
human Yes1 enzyme = target: T1, human Yes1 enzyme (Homo sapiens, UniProt P07947); test: Yes1 enzyme inhibitory activity (time-resolved fluorometry, biotinylated peptide phosphorylation); conditions: read-out: YES_IC50
T1 construct: made in house
Outline: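 Inhibition was expressed against a compound-free control to give IC50, using TR-FRET read-out (Eu-cryptate anti-pTyr antibody, streptavidin-XL665).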

human Src enzyme = target: T2, human Src enzyme (Homo sapiens, UniProt P12931); test: Src enzyme inhibitory activity (time-resolved fluorometry, biotinylated peptide phosphorylation); conditions: read-out: SRC_IC50
T2 construct: purchased Carna Biosciences, Inc. 08-173
Outline: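 Compounds were tested for blocking tyrosine phosphorylation of a biotinylated peptide substrate by recombinant human Src. Phosphorylated product was quantified by time-resolved fluorometry using europium cryptate and XL665 conjugates, and IC50 was calculated against the compound-free control.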

human Lck enzyme = target: T3, human Lck enzyme (Homo sapiens, UniProt P06239); test: Lck enzyme inhibitory activity (time-resolved fluorometry, biotinylated peptide phosphorylation); conditions: read-out: LCK_IC50
T3 construct: purchased Carna Biosciences, Inc. 08-170
Outline: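 Readout pairs a europium cryptate-labelled anti-phosphotyrosine antibody with XL665-streptavidin, measured by time-resolved fluorescence. IC50 derived from percent inhibition against untreated controls.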

T2 sequence (P12931 whole entry): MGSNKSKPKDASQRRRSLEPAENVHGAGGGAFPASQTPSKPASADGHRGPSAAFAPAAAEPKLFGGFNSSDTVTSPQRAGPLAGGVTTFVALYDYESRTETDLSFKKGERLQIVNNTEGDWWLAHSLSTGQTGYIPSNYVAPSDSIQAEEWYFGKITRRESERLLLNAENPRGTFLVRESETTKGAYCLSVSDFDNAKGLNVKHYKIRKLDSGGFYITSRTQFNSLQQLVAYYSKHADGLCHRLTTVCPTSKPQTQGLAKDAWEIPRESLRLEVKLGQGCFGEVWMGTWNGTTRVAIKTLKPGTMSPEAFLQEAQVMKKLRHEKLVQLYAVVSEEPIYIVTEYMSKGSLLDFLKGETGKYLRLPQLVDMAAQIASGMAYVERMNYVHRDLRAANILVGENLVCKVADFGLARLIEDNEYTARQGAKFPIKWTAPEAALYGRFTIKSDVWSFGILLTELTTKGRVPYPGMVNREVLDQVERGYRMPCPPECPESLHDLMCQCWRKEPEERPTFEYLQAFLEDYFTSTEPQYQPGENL
T3 sequence (P06239 whole entry): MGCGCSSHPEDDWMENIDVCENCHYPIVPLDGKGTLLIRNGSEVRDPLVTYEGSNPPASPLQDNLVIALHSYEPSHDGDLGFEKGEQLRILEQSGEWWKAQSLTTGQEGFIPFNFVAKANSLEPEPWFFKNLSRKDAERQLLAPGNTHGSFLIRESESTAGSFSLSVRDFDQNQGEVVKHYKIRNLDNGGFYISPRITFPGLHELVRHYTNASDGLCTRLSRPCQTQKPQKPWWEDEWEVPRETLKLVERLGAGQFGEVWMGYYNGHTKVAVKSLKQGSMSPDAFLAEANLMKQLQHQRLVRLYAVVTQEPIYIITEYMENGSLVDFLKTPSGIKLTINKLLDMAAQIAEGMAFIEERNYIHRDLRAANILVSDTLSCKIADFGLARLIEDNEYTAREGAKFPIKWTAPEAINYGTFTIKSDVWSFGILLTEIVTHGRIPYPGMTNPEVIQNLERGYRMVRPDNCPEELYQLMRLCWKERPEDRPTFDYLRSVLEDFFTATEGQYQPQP
T1 sequence (P07947 whole entry): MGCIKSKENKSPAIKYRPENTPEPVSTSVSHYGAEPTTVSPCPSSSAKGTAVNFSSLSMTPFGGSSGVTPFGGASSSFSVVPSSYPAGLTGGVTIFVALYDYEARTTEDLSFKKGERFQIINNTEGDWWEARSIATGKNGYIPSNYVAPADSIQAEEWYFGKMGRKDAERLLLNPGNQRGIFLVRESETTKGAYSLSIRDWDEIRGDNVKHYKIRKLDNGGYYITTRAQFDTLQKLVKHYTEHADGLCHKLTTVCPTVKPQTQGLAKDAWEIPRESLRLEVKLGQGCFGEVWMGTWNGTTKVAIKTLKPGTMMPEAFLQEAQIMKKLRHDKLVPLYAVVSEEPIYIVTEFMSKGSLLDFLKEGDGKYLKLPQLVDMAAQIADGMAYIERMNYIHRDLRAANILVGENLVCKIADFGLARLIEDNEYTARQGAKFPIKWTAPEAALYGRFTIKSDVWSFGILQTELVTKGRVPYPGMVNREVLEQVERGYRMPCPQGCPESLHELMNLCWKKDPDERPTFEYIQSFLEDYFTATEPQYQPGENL

SMILES | IC50 (human Yes1 enzyme) | IC50 (human Src enzyme) | IC50 (human Lck enzyme)
Cc1cc2cc(C(=O)c3cnn(-c4cnc(Oc5ccccc5F)cc4C)c3N)[nH]c2cc1N1C(=O)NC(C)(C)C1=O [Example 5-1-334, 3-[2-[5-amino-1-[6-(2-fluorophenoxy)-4-methylpyridin-3-yl]pyrazole-4-carbonyl]-5-methyl-1H-indol-6-yl]-5,5-dimethylimidazolidine-2,4-dione] | 1.3 nM | 41 nM | 4 nM
Cc1ccccc1-c1cc2[nH]c(C(=O)c3cnn(-c4cnc(Oc5c(F)cccc5F)cc4C)c3N)cc2cc1OC1CCN(C2CCCC2)CC1 [Example 5-1-337, [5-amino-1-[6-(2,6-difluorophenoxy)-4-methylpyridin-3-yl]pyrazol-4-yl]-[5-(1-cyclopentylpiperidin-4-yl)oxy-6-(2-methylphenyl)-1H-indol-2-yl]methanone] | 2.3 nM | 120 nM | 18 nM
Cc1cc2cc(C(=O)c3cnn(-c4cnc(Oc5c(F)cccc5F)cc4C)c3N)[nH]c2cc1N1C(=O)NC2(CCC2)C1=O [Example 5-1-341, 7-[2-[5-amino-1-[6-(2,6-difluorophenoxy)-4-methylpyridin-3-yl]pyrazole-4-carbonyl]-5-methyl-1H-indol-6-yl]-5,7-diazaspiro[3.4]octane-6,8-dione] | 2.7 nM | 53 nM | 7.4 nM
Cc1cc(Oc2c(F)cccc2F)ncc1-n1ncc(C(=O)c2cc3cc(F)c(N4C(=O)NC5(CC5)C4=O)cc3[nH]2)c1N [Example 5-1-343, 6-[2-[5-amino-1-[6-(2,6-difluorophenoxy)-4-methylpyridin-3-yl]pyrazole-4-carbonyl]-5-fluoro-1H-indol-6-yl]-4,6-diazaspiro[2.4] heptane-5,7-dione] | 3 nM | 100 nM | 7.2 nM
Cc1cc(Oc2c(F)cccc2F)ncc1-n1ncc(C(=O)c2cc3cc(F)c(N4C(=O)NC5(COC5)C4=O)cc3[nH]2)c1N [Example 5-1-345, 7-[2-[5-amino-1-[6-(2,6-difluorophenoxy)-4-methylpyridin-3-yl]pyrazole-4-carbonyl]-5-fluoro-1H-indol-6-yl]-2-oxa-5,7-diazaspiro[3.4] octane-6,8-dione] | 1.6 nM | 47 nM | 3.2 nM
Cc1cc(Oc2c(F)cccc2F)ncc1-n1ncc(C(=O)c2cc3cc(SC(F)F)c(NS(=O)(=O)C4CCOCC4)cc3[nH]2)c1N [Example 5-1-346, N-[2-[5-amino-1-[6-(2,6-difluorophenoxy)-4-methylpyridin-3-yl]pyrazole-4-carbonyl]-5-(difluoromethylsulfanyl)-1H-indol-6-yl]oxane-4-sulfonamide] | 8.8 nM | 510 nM | 120 nM
Cc1cc2cc(C(=O)c3cnn(-c4ccc(Oc5ccccc5F)cc4C)c3N)[nH]c2cc1NS(=O)(=O)C1CCOCC1 [Example 5-1-347, N-[2-[5-amino-1-[4-(2-fluorophenoxy)-2-methylphenyl]pyrazole-4-carbonyl]-5-methyl-1H-indol-6-yl]oxane-4-sulfonamide] | 0.87 nM | 46 nM | 11 nM
Cc1cc(Oc2c(F)cccc2F)ncc1-n1ncc(C(=O)c2cc3cc(OCC(F)F)c(N4C(=O)N[C@]5(CCNC5)C4=O)cc3[nH]2)c1N [Example 5-1-348, (5S)-3-[2-[5-amino-1-[6-(2,6-difluorophenoxy)-4-methylpyridin-3-yl]pyrazole-4-carbonyl]-5-(2,2-difluoroethoxy)-1H-indol-6-yl]-1,3,7-triazaspiro[4.4]nonane-2,4-dione] | 0.8 nM | 13 nM | 2 nM
Cc1cc(Oc2c(F)cccc2F)ncc1-n1ncc(C(=O)c2cc3cc(OCC(F)F)c(N4C(=O)NC5(CCN(Cc6ccccc6)CC5)C4=O)cc3[nH]2)c1N [Example 5-1-351, 3-[2-[5-amino-1-[6-(2,6-difluorophenoxy)-4-methylpyridin-3-yl]pyrazole-4-carbonyl]-5-(2,2-difluoroethoxy)-1H-indol-6-yl]-8-benzyl-1,3,8-triazaspiro[4.5]decane-2,4-dione] | 0.65 nM | 6 nM | 2.4 nM
Cc1cc(Oc2c(F)cccc2F)ncc1-n1ncc(C(=O)c2cc3cc(OCC(F)F)c(N4C(=O)NC5(CCN(C6COC6)C5)C4=O)cc3[nH]2)c1N (stereo not drawn) [Example 5-1-352, 3-[2-[5-amino-1-[6-(2,6-difluorophenoxy)-4-methylpyridin-3-yl]pyrazole-4-carbonyl]-5-(2,2-difluoroethoxy)-1H-indol-6-yl]-7-(oxetan-3-yl)-1,3,7-triazaspiro[4.4]nonane-2,4-dione] | 11 nM | 160 nM | 17 nM
Cc1cc(Oc2ccccc2F)ccc1-n1ncc(C(=O)c2cc3cc(OCC(F)F)c(N4C(=O)NC5(CCN(C6COC6)C5)C4=O)cc3[nH]2)c1N (stereo not drawn) [Example 5-1-353, 3-(2-(5-amino-1-(4-(2-fluorophenoxy)-2-methylphenyl)-1H-pyrazole-4-carbonyl)-5-(2,2-difluoroethoxy)-1H-indol-6-yl)-7-(oxetan-3-yl)-1,3,7-triazaspiro[4.4]nonane-2,4-dione] | 5.5 nM | 73 nM | 14 nM
Cc1cc(Oc2c(F)cccc2F)ncc1-n1ncc(C(=O)c2cc3cc(OCC(F)F)c(N4C(=O)NC5(CCN(Cc6ccccc6)C5)C4=O)cc3[nH]2)c1N (stereo not drawn) [Example 5-1-354, 3-[2-[5-amino-1-[6-(2,6-difluorophenoxy)-4-methylpyridin-3-yl]pyrazole-4-carbonyl]-5-(2,2-difluoroethoxy)-1H-indol-6-yl]-7-benzyl-1,3,7-triazaspiro[4.4]nonane-2,4-dione] | 1.4 nM | 13 nM | 2.9 nM

Further molecules by falling IC50 (human Yes1 enzyme), results first:

IC50 (human Yes1 enzyme) | IC50 (human Src enzyme) | IC50 (human Lck enzyme) | SMILES
5.7 nM | 540 nM | 74 nM | Cc1cc(Oc2ccccc2F)ncc1-n1ncc(C(=O)c2cc3cc(SC(F)F)c(NS(=O)(=O)CCCF)cc3[nH]2)c1N [Example 5-1-339, N-[2-[5-amino-1-[6-(2-fluorophenoxy)-4-methylpyridin-3-yl]pyrazole-4-carbonyl]-5-(difluoromethylsulfanyl)-1H-indol-6-yl]-3-fluoropropane-1-sulfonamide]
4.7 nM | 150 nM | 13 nM | Cc1cc(Oc2c(F)cccc2F)ncc1-n1ncc(C(=O)c2cc3cc(F)c(N4C(=O)NC5(CCCC5)C4=O)cc3[nH]2)c1N [Example 5-1-344, 3-[2-[5-amino-1-[6-(2,6-difluorophenoxy)-4-methylpyridin-3-yl]pyrazole-4-carbonyl]-5-fluoro-1H-indol-6-yl]-1,3-diazaspiro[4.4]nonane-2,4-dione]
3 nM | 180 nM | 30 nM | Cc1ccccc1-c1cc2[nH]c(C(=O)c3cnn(-c4cnc(Oc5c(F)cccc5F)cc4C)c3N)cc2cc1OC1CCN(C2CS(=O)(=O)C2)CC1 [Example 5-1-338, [5-amino-1-[6-(2,6-difluorophenoxy)-4-methylpyridin-3-yl]pyrazol-4-yl]-[5-[1-(1,1-dioxothietan-3-yl)piperidin-4-yl]oxy-6-(2-methylphenyl)-1H-indol-2-yl]methanone]
2.7 nM | 1700 nM | 120 nM | Cc1cc(-n2ncc(C(=O)c3cc4cc(OC5CCN(C6CCCC6)CC5)c(-c5ccccc5C)cc4[nH]3)c2N)ccc1Oc1ccccc1F [Example 5-1-335, [5-amino-1-[4-(2-fluorophenoxy)-3-methylphenyl]pyrazol-4-yl]-[5-(1-cyclopentylpiperidin-4-yl)oxy-6-(2-methylphenyl)-1H-indol-2-yl]methanone]
2.1 nM | 130 nM | 20 nM | Cc1cc(Oc2ccccc2F)ccc1-n1ncc(C(=O)c2cc3cc(OC(F)F)c(N4CC(C)(C)NS4(=O)=O)cc3[nH]2)c1N [Example 5-1-340, [5-amino-1-[4-(2-fluorophenoxy)-2-methylphenyl]pyrazol-4-yl]-[5-(difluoromethoxy)-6-(4,4-dimethyl-1,1-dioxo-1,2,5-thiadiazolidin-2-yl)-1H-indol-2-yl]methanone]
1.7 nM | 48 nM | 5.3 nM | Cc1cc2cc(C(=O)c3cnn(-c4cnc(Oc5c(F)cccc5F)cc4C)c3N)[nH]c2cc1N1C(=O)NC2(CCOCC2)C1=O [Example 5-1-342, 3-[2-[5-amino-1-[6-(2,6-difluorophenoxy)-4-methylpyridin-3-yl]pyrazole-4-carbonyl]-5-methyl-1H-indol-6-yl]-8-oxa-1,3-diazaspiro[4.5] decane-2,4-dione]
0.88 nM | 13 nM | 3.3 nM | Cc1cc(Oc2c(F)cccc2F)ncc1-n1ncc(C(=O)c2cc3cc(OCC(F)F)c(N4C(=O)NC5(CCN(C6COC6)CC5)C4=O)cc3[nH]2)c1N [Example 5-1-350, 3-[2-[5-amino-1-[6-(2,6-difluorophenoxy)-4-methylpyridin-3-yl]pyrazole-4-carbonyl]-5-(2,2-difluoroethoxy)-1H-indol-6-yl]-8-(oxetan-3-yl)-1,3,8-triazaspiro[4.5]decane-2,4-dione]
0.51 nM | 6.9 nM | 2.5 nM | Cc1cc(Oc2ccccc2F)ccc1-n1ncc(C(=O)c2cc3cc(OCC(F)F)c(N4C(=O)NC5(CCNC5)C4=O)cc3[nH]2)c1N (stereo not drawn) [Example 5-1-349, 3-[2-[5-amino-1-[4-(2-fluorophenoxy)-2-methylphenyl]pyrazole-4-carbonyl]-5-(2,2-difluoroethoxy)-1H-indol-6-yl]-1,3,7-triazaspiro [4.4]nonane-2,4-dione]
